Series [1] in a line: Oxygen radical absorbance capacity (ORAC). The conditions noted are these: Trolox equivalent; compounds and Trolox 100 µM, AAPH 12 mM. An excerpt: (§1) DPPH is a stable chromogen radical, which is widely used to assess the antioxidant activity of biological objects, in particular when searching for potential therapeutic agents used to maintain the redox balance in the body and treat pathologies associated with the action of free radicals. In turn, the oxygen radical absorbance capacity (ORAC) analysis is based on the removal by potential antioxidants of peroxyl radicals generated by AAPH (2,2’-axobis-2-methyl-propanimidamide, dihydrochloride), preventing the degradation of the fluorescein probe.
The analysis of the absorption capacity of oxygen radicals was performed as described in [151], with some modifications. Trolox (Sigma Aldrich, St. Louis, MI, USA) was used as a standard antioxidant. The studied compounds were introduced into the holes of a 96-hole black tablet with a transparent bottom with Trolox (25 µL; the final concentration was 100 µM) and fluorescein (150 µL; the final concentration was 80 nM, Sigma Aldrich, St. Louis, MI, USA). The resulting mixture was shaken and incubated for 30 min at 37 °C. After a 30-min incubation period, a solution of 2,2’-azobis (2-amidinopropane) dihydrochloride (AAPH) (25 µL; final concentration of 12 mM, Sigma Aldrich, St. Louis, MI, USA) was quickly introduced into all wells of the tablet. The tablet was immediately placed in a multifunctional tablet analyzer Cytation™ 3 (BioTek Instruments, Inc., Winooski, VT, USA). The fluorescence intensity was recorded for 300 min at λex = 480 nm, λem = 520 nm with an interval of every 5 min. In the same experiment, calibration solutions for the reference antioxidant Trolox were used to confirm the validity of the use of this method (0, 6.25, 12.5, 25, 50 and 100 µM).

The next series concerns 5xFAD transgenic mice. The experiment in a line: Morris Water Maze test in 5xFAD transgenic mice. It counts as in vivo. The conditions noted are these: 5xFAD mice; for Latency to platform: 15 mg/kg intraperitoneal. An excerpt: As part of the in vivo testing of the biological activity of the leader compound, a transgenic mouse model with Alzheimer’s disease 5xFAD at the age of 13 months was used. This line expresses two human genes: APP (amyloid peptide precursor protein gene) with three types of mutations (Swedish (K670N, M671L), Florida (I716V) and London (V717I)), as well as the presenilin 1 gene with mutations (M146L and L286V) characteristic of this disease. Clinically healthy wildtype single-litter mice C57Bl6/j (n = 8) were used as a control group. Transgenic 5xFAD mice were randomly divided into two groups: (1) animals receiving intraperitoneal injections of hydroxamic acid 35a at a dose of 15 mg/kg (10% DMSO + NaCl) for three weeks—the 5xFAD + 35a group (n = 8) and (2) mice receiving an equivalent volume of solvent—the group 5xFAD (n = 8). All animals were kept in standard vivarium conditions at a temperature of 22 ± 1 °C and a humidity of 55% indoors with a 12-h light–dark cycle. The animals had no restrictions in the consumption of water and food. The study of the neurobehavioral profile was started on the 15th day of the experiment.
The Morris Water Maze test was performed for five consecutive days to assess the formation of spatial learning and memory dependent on the hippocampus.
The installation consisted of a pool (Open Science, Moscow, Russia) with a diameter of 150 cm, filled to a depth of 40 cm with water (22 ± 1 °C). The lighting conditions were as follows: the dark side of the pool—50 lux; the light side—75 lux. […]
Testing was carried out according to a standard protocol, where for the first four days mice were placed in a pool with a platform hidden under water (1.5 cm below the water surface) in one of the quadrants of the pool. […] To do this, the animals were placed in the pool for 90 s and a number of indicators of the neurobehavioral profile were recorded.
All experimental attempts in the Morris water maze were recorded on a camera capturing video images from above the pool, which were processed using EthoVision software.

Series [2] is described as follows: DPPH radical scavenging activity. Conditions: Trolox equivalent; compounds and Trolox 100 µM.
Description: as §1
The measurement of the antiradical activity of synthesized hydroxamic acids was carried out using the method described in [150]. The studied compounds were introduced into the wells of a 96-well black tablet (the final concentration was 100 microns), after which a freshly prepared solution of 2,2-diphenyl-1-picrylhydrazyl (Sigma Aldrich, St. Louis, Missouri, USA) was added. After the incubation time had elapsed, the DPPH radical-scavenging activity was measured using a multifunctional Cytation™3 tablet analyzer (BioTek Instruments, Inc., Winooski, VT, USA) at λ = 517 nm by the difference in the reduction of the DPPH radical peak between control samples containing an equivalent volume of solvent and samples with the substances under study.

The target of series [3] is T1, β-amyloid peptide 1-42 (Aβ1-42) (Homo sapiens, UniProt P05067).
T1 construct: the pathological form of β-amyloid peptide 1-42 (Sigma Aldrich); purchased Sigma Aldrich
T1 sequence (P05067 672-713 limits assumed): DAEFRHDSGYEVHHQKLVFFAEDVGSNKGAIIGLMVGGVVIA
Briefly: Thioflavin T fluorescent analysis of Aβ1-42 aggregation. It counts as biochemical. Conditions: 48 h, compounds 100 µM, Thioflavin T 10 µM, 48 h registration; read-out: prevention of the aggregation of Aβ1-42. An excerpt:
The aggregation process of β-amyloid peptide 1-42 (Aβ1-42), caused by hydrophobic interactions of peptide monomers and, as a consequence, the formation of the most toxic polymorphic structure-oligomeric fragments of Aβ, was detected using the fluorescent dye Thioflavin T (Figure 4a). This method is the most widely used for selective staining and the identification of amyloid aggregates, which is confirmed by a large number of works. Fluorescence analysis using Thioflavin T made it possible to monitor the aggregation process of the pathological form of β-amyloid peptide 1-42 (Sigma Aldrich, St. Louis, MI, USA). The experimental protocol was carried out similarly to that described in [58] with some modifications. The registration of changes in the fluorescence of thioflavin T (10 µM, Sigma Aldrich, St. Louis, MI, USA) was performed on a multifunctional tablet analyzer Cytation™3 (BioTek Instruments, Inc., Winooski, VT, USA) at λex = 450 nm, λem = 480 nm. The fluorescence intensity of the solution without Aβ1-42 was subtracted from the fluorescence values of solutions containing protein, due to the need to subtract the background fluorescence.

From PMC10254045, “Elaboration of the Effective Multi-Target Therapeutic Platform for the Treatment of Alzheimer’s Disease Based on Novel Monoterpene-Derived Hydroxamic Acids” (International Journal of Molecular Sciences, 2023) come the findings set out here.

Structures are written as SMILES.

In the case of `C=C(C)[C@@H]1CC=C(CNC(=O)/C=C/c2ccc(C(=O)NO)cc2)CC1` [Compound 35a, (S,E)-N-hydroxy-4-(3-oxo-3-(((4-(prop-1-en-2-yl)cyclohex-1-en-1-yl)methyl)amino)prop-1-en-1-yl)benzamide], the melting point (as a rule, the temperature, or range, at which the solid turns liquid) came out at 179.9 °C. In addition, the “ORAC value (TE)” value in series [1] was 1.15 TE. For the same compound, the Latency to platform in the series with 5xFAD transgenic mice (first day of training) was 55.70 ± 2.10 s. In the series on 5xFAD transgenic mice (fourth day of training, p = 0.039 vs day 1), this compound had a Latency to platform of 40.93 ± 5.47 s. Also, the “number of entrances to the target quadrant, Probe trial” value with 5xFAD transgenic mice (15 mg/kg, fifth day, p = 0.203 vs C57Bl6/j) is “same number of entrances to the target quadrant of the maze was found with the control group”. Besides, the “DPPH value (TE)” value in series [2] worked out at 0.88 TE. Further, the inhibition at 100 µM in series [3] is 73.9%.
